Measured values published in ChEMBL document CHEMBL1151512, “Design and synthesis of new potential photoaffinity labels for mammalian squalene epoxidase” (Bioorg Med Chem Lett, 1997).

Each compound was assayed on HepG2 (assay: In vitro cholesterol biosynthesis inhibition in human HepG2 by measuring the extend of cholesterol radiolabeling after incubation with [14C]mevalonate.).
Type: functional, cell-based

| SMILES | IC50 |
| --- | --- |
| CCN(C/C=C/C#CC(C)(C)C)Cc1cccc(OC[Si](C)(C)c2ccc(C#N)cc2)c1 | 60 nM |
| CCN(C/C=C/C#CC(C)(C)C)Cc1cccc(OC[Si](C)(C)c2ccc(N=[N+]=[N-])cc2)c1 | 1200 nM |
| CCN(CC#Cc1ccc(N=[N+]=[N-])cc1)Cc1cccc(OCc2cc(-c3ccsc3)cs2)c1 | 2100 nM |

Second part, the compound after the results:

| IC50 | SMILES |
| --- | --- |
| > 100000 nM | CCN(CC#Cc1ccccc1N=[N+]=[N-])Cc1cccc(OCc2cc(-c3ccsc3)cs2)c1 |
| 70 nM | CCN(CC#Cc1ccccc1)Cc1cccc(OCc2cc(-c3ccsc3)cs2)c1 |
| 540 nM | CCN(CC#Cc1cccc(N=[N+]=[N-])c1)Cc1cccc(OCc2cc(-c3ccsc3)cs2)c1 |
